Results reported in article PMC10823514, “Target Identification of a Class of Pyrazolone Protein Aggregation Inhibitor Therapeutics for Amyotrophic Lateral Sclerosis” (ACS Central Science, 2023).

Tests used:
14-3-3-H = target: T1, 14-3-3-H (Homo sapiens, UniProt Q04917); assay: Fluorescent thermal shift assay (FTSA) with 14-3-3-H; format: binding
T1 construct: His-tag (TEV-cleavable) (cleaved yes); host or cells: E. coli (BL21)
T1 sequence (Q04917 1-246): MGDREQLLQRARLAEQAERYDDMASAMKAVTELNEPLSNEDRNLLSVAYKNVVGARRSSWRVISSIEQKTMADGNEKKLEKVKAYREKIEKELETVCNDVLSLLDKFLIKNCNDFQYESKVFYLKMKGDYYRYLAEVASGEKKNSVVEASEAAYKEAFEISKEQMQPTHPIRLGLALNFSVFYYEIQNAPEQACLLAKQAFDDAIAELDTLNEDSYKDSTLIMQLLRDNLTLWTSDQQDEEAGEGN
Description: His-tagged 14-3-3-E, B, and H plasmids were purchased from Addgene (plasmid ID# 31562, 39128, and 38814, respectively). E. coli (BL21) were transformed with extracted plasmids via heat shock and plated on selected media. Individual colonies were selected, grown, and sequenced to confirm gene presence. 1 L cultures were grown to an OD600 of 0.6 at 37 °C and 220 rpm. Protein expression was induced with 1 mM IPTG and expressed for 12 h at 100 rpm and room temperature (approximately 25 °C). Cells were spun down at 4000 rpm for 15 min at 4 °C and resuspended in lysis buffer containing 50 mM Tris (7.4), 150 mM NaCl, 0.08% DDM, 5 mM imidazole, and 5% glycerol (with an EDTA-free complete mini protease inhibitor cocktail). Cells were lysed via sonication, and the lysate was separated from cell debris by centrifugation at 15,000 rpm, 4 °C, for 45 min. The His-tagged protein was purified using QIAGEN Ni-NTA superflow columns, and the His-tag was removed with TEV protease. His-tag-removed proteins were further purified by size exclusion chromatography. His tag removal and size exclusion chromatography purification were done at the Northwestern University Protein Production core. […]
All of the FTSA experiments were conducted in HEPES buffer (60 mM HEPES, 150 mM NaCl, pH 7.4). […] The fluorescence was measured on a Bio-Rad CFX384 real-time PCR instrument.

[1] = target: T2, 25 kDa protein band in PC12 SOD1^G93A cells (Rattus norvegicus, UniProt P62260); assay: Competition of PRAPP photoaffinity labeling of the 25 kDa band in PC12-SOD1^G93A cells; format: binding; conditions: 30 μM PRAPP
T2 construct: we identified a 25 kDa covalently modified protein band in the PC12 SOD1^G93A cell line; endogenous in cells; host or cells: PC12-SOD1^G93A cells (live-cell UV photolabeling, then lysis)
T2 sequence (P62260 1-255): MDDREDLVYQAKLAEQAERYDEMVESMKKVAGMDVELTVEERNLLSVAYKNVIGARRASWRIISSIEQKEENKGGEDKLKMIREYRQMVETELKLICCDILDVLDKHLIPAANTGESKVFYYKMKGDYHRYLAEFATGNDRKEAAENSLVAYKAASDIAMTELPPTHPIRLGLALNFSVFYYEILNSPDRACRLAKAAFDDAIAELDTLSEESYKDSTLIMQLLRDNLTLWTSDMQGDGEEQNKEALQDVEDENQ
Description: PC12-SOD1^G93A cells were cultured and grown to 90% confluency (in 6-well plates) and washed once with PBS followed by the addition of serum medium containing the appropriate analyte at the indicated concentrations. Three incubation scenarios were studied (at 37 °C): Scenario 1) 12 h preincubation with PRAPP in the absence of MG-132; Scenario 2) 12 h preincubation with PRAPP in the absence of MG-132 followed by an additional 24 h incubation (control); and Scenario 3) 12 h preincubation with PRAPP followed by the addition of MG-132 (100 nM) and an additional 24 h incubation. After incubation, the medium was discarded and cells were washed with PBS (1 × 300 μL). Fresh serum-free medium was added, and the cells were irradiated with UV light (312 nm, 120 V, 60 Hz, 0.2 A [Spectroline model EB-160C], distance ∼4 cm) for 15 min. The medium was removed, cells were washed with PBS (2 × 500 μL), and 200 μL of lysis buffer containing Tris HCl (25 mM, pH 7.6), NaCl (150 mM), 1% NP40, 1% sodium deoxycholate, 0.1% SDS, and protease inhibitor cocktail (Sigma-Aldrich, 1:100 v/v) was added to each well. Complete lysis was observed by a microscope after 10 min at 4 °C with agitation. Each lysate was centrifuged at 4 °C for 5 min at 13,000 rpm, and the resulting supernatant was concentrated with a centrifugal filter (Amicon Ultra Centrifugal Filters 3K cutoff, Millipore), normalized to 1.0 mg/mL by the Bradford assay, and analyzed immediately or stored at −80 °C for subsequent analysis.
In a darkened (wrapped with aluminum foil) Eppendorf tube, each lysate (30 μL [30 μg]) was incubated with 10 μL of the freshly prepared “click” premix containing CuSO4 (5 mM), sodium ascorbate (5 mM), TBTA (200 μM), and N3–Alexa-647 (50 μM) were added to PBS (50 mM, pH 7.4). The corresponding final concentrations within the lysate click incubation were: CuSO4 (1.25 mM), sodium ascorbate (1.25 mM), TBTA (50 μM), and N3–Alexa-647 (12.5 μM). The mixture was vortexed briefly and incubated for 1.5 h at 37 °C in the dark. NuPAGE LDS sample loading buffer (4 × 13 μL) was added, and the mixture was denatured in boiling water for 10 min. SDS-PAGE was performed on Novex Bis-Tris gel 4–12% with MES SDS running buffer (90 V constant for 30 min followed by 100 V for 90 min; load volume = 25 μL). Protein standards that gave appropriate visible and fluorescent bands for our application included the BioRad Precision Plus All Blue Protein Standard and Novex Pre-Stained Protein Standard. In-gel fluorescence was monitored (excitation λ = 635 nm; emission λ = 670 nm) using a Typhoon 9400 (GE Healthcare) fluorimager. Densitometric analysis and image refinement were carried out as needed using ImageJ software (NIH, open source). The contrast and brightness of images were modified using ImageJ and/or Microsoft Word to enhance visualization for publication purposes.

O=c1cc(COc2cc(Cl)cc(Cl)c2)[nH][nH]1 [P2]
binding (Tm shift) (14-3-3-H): no binding
competitor to PRAPP ratio at complete disappearance of the band [1]: 6
EC50 ([1]; scenario 1, n = 2, read-out: EC50 for the competition with PRAPP (25 kDa band intensity)): 11.1 µM
